Measurements as given in article PMC10885153, “Membrane Permeability in a Large Macrocyclic Peptide Driven by a Saddle-Shaped Conformation” (Journal of the American Chemical Society, 2024).
≈ marks a conversion by molar mass, not a printed value. Where two headings read alike, the source gives them in different places. Positions of bridges follow the written chain, without caps; N, C: chain ends. Non-standard residues stand in square brackets, D forms with d. Residues, ends and D or L forms follow the SMILES beside them. NMeF = CN[C@@H](Cc1ccccc1)C(=O)O; Cha = N[C@@H](CC1CCCCC1)C(=O)O; NMeNva = CCC[C@H](NC)C(=O)O; NMeAbu = CC[C@H](NC)C(=O)O; NMeC = CN[C@@H](CS)C(=O)O; NMeA = CN[C@@H](C)C(=O)O; dAbu = CC[C@@H](N)C(=O)O; dNMeA = CN[C@H](C)C(=O)O; Nva = CCC[C@H](N)C(=O)O; Abu = CC[C@H](N)C(=O)O; Nleu = CC(C)CNCC(=O)O; NPrGly = CCCNCC(=O)O; NEtG = CCNCC(=O)O

What was measured:
in vitro [1] = conditions: PAMPA
Protocol: (§1) assay was carried out with a 96-well donor plate with 0.45 μ hydrophobic Immobilon-P membrane supports
(§2) (Millipore MAIPNTR10) and a 96-well Teflon acceptor plate (Millipore MSSACCEPTOR). The PAMPA
protocol then proceeded as follows:
(§3) Donor well solutions were prepared to a volume of 1 000 µL with the analytes as a solution in 1X
(§4) PBS pH 7.4 and 5% DMSO. To a 3 mL Eppendorf tube was added 950 µL of 1X PBS pH 7.4, 40
Analyte – 10 µM per compound
(§5) sonicated (5 min) to ensure full dissolution of the lecithin. The donor membrane plate was turned
(§6) upside down and bottom of the membranes exposed. 5 µL of the 1% soy lecithin solution in
(§7) dodecane was then placed on the bottom of the membrane, allowing the drop to spread across the
(§8) full area of the membrane. Any membranes with visible damage were not used in the assay. The
(§9) membranes were allowed to equilibrate for 5 min before loading.
(§10) 3. Each well within the Teflon block acceptor plate that was to be used in the assay was then loaded
(§11) with 300 µL of 1X PBS pH 7.4 and 5% DMSO.
(§12) Working without break, 150 µL of each donor well solution was transferred from the to the 96-well
(§13) donor plate. Each mixture of interest was r un in quadruplicate, using a new well for each replicate.
(§14) As soon as the 96-well donor plate was finished being loaded, it was gently placed into the 96-well
(§15) Teflon acceptor plate, taking care not to trap any air bubbles beneath the membrane.
(§16) The donor/acceptor plates were covered gently with the lid to minimize evaporation and transferred
(§17) gently as a system to a sealed chamber and left to sit overnight at room temperature. The chamber
(§18) was kept from drying by placing a wet paper towel within to prevent evaporation.
(§19) After ~19-20 hours the donor plate was removed from the acceptor plate.
(§20) 50 µL of each well (donor and acceptor) were transferred to a 96 -well plate and diluted with 50 µL
(§21) of methanol prior to heat sealing and quantification by UPLC -MS.

[2] = test system: Mdr1 knockout Madin–Darby canine kidney (MDCK) cells
Protocol: (§22) We also tested the permeabilities of the pure compounds in a cell-based trans-well permeability assay using Mdr1 knockout Madin–Darby canine kidney (MDCK) cells which minimize the endogenous efflux activity of traditional MDCK cells.[54]
(§23) The gMDCKI cell line (overexpressed cell line of Madin -Darby Canine Kidney which acquired from the NIH)
(§24) maintained in DMEM medium supplemented with 1% pen -strep, 5 µg/mL Plasmocin, and 10% FBS under
(§25) standard culture conditions (37 °C, 95% humidity, and 5% CO2), were seeded (0.75 x 10^5 cells) on the HTS
(§26) Transwell-96 permeable support (Corning) to form a confluent monolayer for two days.
(§27) All experimental steps were fully automated on Hamilton Vantage. Compound stock solution (1 mM in
(§28) DMSO) was diluted (10 μM final in HBSS, pH 7.4) with Lucifer Yellow as leakage indicator (20 μM). After
(§29) washing with HBSS buffer, the solution of test compounds was added to the apical side of the monolayers.
(§30) The plate was incubated for 3 h at 37 °C. T0 samples (10 µL of the 10 µM compounds diluted solution with
(§31) LY) were transferred to a 96-well plate, and then 40 µL of HBSS was added. After 3 hours, 50 μL basolateral
(§32) samples in the receiving plate were transferred to a fresh 96-well plate and added 100 μL of IS solution
(§33) (Propranolol). LY were read by plate reader and the samples were analyzed by LC/MS/MS.
(§34) The apparent permeability coefficient (Papp) is calculated from the permeation rate and compound
concentration at t=0h and t=3h. Where:
(§35) dQ/dt: amount of product present in the basal (A-B) or apical (B-A) compartment as a function of time
A: area of transwell (cm2).
(§36) C0: initial concentration of product applied in the apical (A -B) or basal (B-A) compartment (nmol/ml).

[3] = PAMPA, 10 µM, pH 7.4
in vitro [4] = conditions: dog, pH 7.4
Protocol: as §22, §23, §24, §25, §26, §27, §28, §29, §30, §31, §32, §33, §34
concentration at t=0h and t=3h. Where:
as §35
A: area of transwell (cm2).
as §36

[5] = PAMPA
Protocol: as §1, §2
protocol then proceeded as follows:
as §3, §4
Analyte – 10 µM per compound
as §5, §6, §7, §8, §9, §10, §11, §12, §13, §14, §15, §16, §17, §18, §19, §20, §21

[6] = MDCK
Protocol: as §22, §23, §24, §25, §26, §27, §28, §29, §30, §31, §32, §33, §34
concentration at t=0h and t=3h. Where:
as §35
A: area of transwell (cm2).
as §36

in vitro [7] = conditions: PAMPA, pH 7.4, Permeability (Papp) PAMPA (mixture)
[8] = 10 µM, pH 7.4
Protocol: as §1, §2
protocol then proceeded as follows:
as §3, §4
Analyte – 10 µM per compound
as §5, §6, §7, §8, §9, §10, §11, §12, §13, §14, §15, §16, §17, §18, §19, §20, §21

[9] = PAMPA, individually resynthesized pure compounds (primary protocol);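 further: artificial membrane of 1% soy lecithin in dodecane on a filter plate, donor and acceptor buffer PBS pH 7.4 with 5% DMSO, incubated overnight at room temperature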
Protocol: as §1, §2
protocol then proceeded as follows:
as §3, §4
Analyte – 10 µM per compound
as §5, §6, §7, §8, §9, §10, §11, §12, §13, §14, §15, §16, §17, §18, §19, §20, §21

[10] = design: method as in Fouché et al.; conditions: rat; ref Fouché et al.; cited from earlier work
[11] = design: method as in Fouché et al.; conditions: ref Fouché et al.; cited from earlier work
[12] = pH 7.4, Permeability (Papp) PAMPA (indiv.)
[13] = pH 7.4, aqueous with cosolvent or surfactant or cyclodextrin, kinetic from dmso stock
[14] = pH 7.4, kinetic from dmso stock

Protocol for physchem: Kinetic Solubility PBS Protocol
4 µL of 10 mM compound in DMSO stock was added to 196 µL 1 X PBS pH 7.4 in a 96 -well microplate to
get a final concentration of 200 µM to shake for 24 hours at 1000 rpm. The sample was filtered sample
using a 96-Multiscreen HTS filter plate (Millipore MSSL BPC50) and a positive pressure manifold.

Row | Structure (SMILES) | Papp at 10 µM (in vitro [1]; [12]) [×10⁻⁶ cm/s] | %R_avg [3] [%] | Papp A→B at 3 h, 10 µM (in vitro [4]; MDCK) [×10⁻⁶ cm/s] | Papp [6] [×10⁻⁶ cm/s] | PAMPA Papp_avg [8] [×10⁻⁶ cm/s] | also measured
1 | CCC[C@@H]1NC(=O)[C@H](C)N(C)C(=O)[C@H](CC(C)C)NC(=O)CSC[C@@H](C(=O)OCC)N(C)C(=O)[C@H](CC(C)C)NC(=O)[C@H](C)N(C)C(=O)[C@H](CC2CCCCC2)NC(=O)[C@H](CC)N(C)C(=O)[C@H]2CCCN2C1=O [LC09, O=C(N(C)[C@H](C(OCC)=O)CSCC(N[C@H](C(N(C)[C@@H](C)C(N[C@@H](CCC)C(N1[C@H](CCC1)C(N(C)[C@@H](CC)C(N[C@H]2CC3CCCCC3)=O)=O)=O)=O)=O)CC(C)C)=O)[C@H](CC(C)C)NC([C@H](C)N(C)C2=O)=O] ({CH2CO}-L[NMeA][Nva][dP][NMeAbu][Cha][NMeA]L[NMeC]-OEt; thioether N-9) | 0.3 | 6.1 | 1.8 |  |  | MDCK Papp_avg ([2]; dog, MDCK, 3 h, 10 µM, pH 7.4): 1.8 ×10⁻⁶ cm/s; solubility kinetic at 24 h (physchem; [13]): 10 µM (≈ 10.5 µg/mL)
2 | CCOC(=O)[C@@H]1CSCC(=O)N[C@H](CC)C(=O)N(C)[C@@H](C)C(=O)N[C@@H](CC(C)C)C(=O)N2CCC[C@@H]2C(=O)N(CC(C)C)CC(=O)N[C@H](CC(C)C)C(=O)N(C)[C@H](C)C(=O)N[C@@H](CC(C)C)C(=O)N1C [A1-4dP, O=C(N(C)[C@H](C(OCC)=O)CSCC(N[C@@H](C(N(C)[C@@H](C)C(N[C@@H](CC(C)C)C(N1[C@H](CCC1)C(N(CC(C)C)CC(N[C@@H]2CC(C)C)=O)=O)=O)=O)=O)CC)=O)[C@H](CC(C)C)NC([C@@H](C)N(C)C2=O)=O] ({CH2CO}-[dAbu][NMeA]L[dP][Nleu][dL][dNMeA]L[NMeC]-OEt; thioether N-9) |  |  |  |  |  | Papp at 10 µM (in vitro [1]; pH 7.4, PAMPA Pe_avg): 0.398 ×10⁻⁶ cm/s; MDCK Papp ([2]; MDCK): 0.0 × 10^–6 cm/s; Papp [5]: 0.3 ×10⁻⁶ cm/s; Papp A→B at 3 h, 10 µM (in vitro [4]): 0.0246 ×10⁻⁶ cm/s
3 | CCOC(=O)[C@@H]1CSCC(=O)N[C@@H](CC)C(=O)N(C)[C@@H](C)C(=O)N[C@@H](CC(C)C)C(=O)N(C)[C@H](C)C(=O)N(CC(C)C)CC(=O)N[C@H](CC(C)C)C(=O)N(C)[C@H](C)C(=O)N[C@@H](CC(C)C)C(=O)N1C [A1-1L, O=C(N(C)[C@H](C(OCC)=O)CSCC(N[C@H](C(N(C)[C@@H](C)C(N[C@@H](CC(C)C)C(N(C)[C@H](C)C(N(CC(C)C)CC(N[C@@H]1CC(C)C)=O)=O)=O)=O)=O)CC)=O)[C@H](CC(C)C)NC([C@@H](C)N(C)C1=O)=O] ({CH2CO}-[Abu][NMeA]L[dNMeA][Nleu][dL][dNMeA]L[NMeC]-OEt; thioether N-9) |  |  |  | 0.9 |  | Papp A→B (in vitro [4]): 0.93 ×10⁻⁶ cm/s
4 | CCCN1CC(=O)N[C@@H](CC)C(=O)N(C)[C@@H](C)C(=O)N[C@@H](CC(C)C)C(=O)N(C)[C@H](C(=O)OCC)CSCC(=O)N[C@@H](CC(C)C)C(=O)N(C)[C@@H](C)C(=O)N[C@@H](CC(C)C)C(=O)N2CCC[C@@H]2C1=O [LA04, O=C(N(C)[C@H](C(OCC)=O)CSCC(N[C@H](C(N(C)[C@@H](C)C(N[C@@H](CC(C)C)C(N1[C@H](CCC1)C(N(CCC)CC(N[C@H]2CC)=O)=O)=O)=O)=O)CC(C)C)=O)[C@H](CC(C)C)NC([C@H](C)N(C)C2=O)=O] ({CH2CO}-L[NMeA]L[dP][NPrGly][Abu][NMeA]L[NMeC]-OEt; thioether N-9) | 3.9 | 8.2 | 4 |  | 3.86 | Papp at 10 µM (in vitro [7]): 4 ×10⁻⁶ cm/s; solubility kinetic at 24 h (physchem; [14]): 200 µM (≈ 199 µg/mL)
5 | CCOC(=O)[C@@H]1CSCC(=O)N[C@H](CC)C(=O)N(C)[C@@H](C)C(=O)N[C@@H](CC(C)C)C(=O)N(C)[C@H](C)C(=O)N(CC(C)C)CC(=O)N[C@H](CC(C)C)C(=O)N(C)[C@H](C)C(=O)N[C@@H](CC(C)C)C(=O)N1C [A1, O=C(N(C)[C@H](C(OCC)=O)CSCC(N[C@@H](C(N(C)[C@@H](C)C(N[C@@H](CC(C)C)C(N(C)[C@H](C)C(N(CC(C)C)CC(N[C@@H]1CC(C)C)=O)=O)=O)=O)=O)CC)=O)[C@H](CC(C)C)NC([C@@H](C)N(C)C1=O)=O] ({CH2CO}-[dAbu][NMeA]L[dNMeA][Nleu][dL][dNMeA]L[NMeC]-OEt; thioether N-9) |  |  |  | 9 |  | MDCK Pe_avg ([2]; resynthesized stereoscan compounds, 10 μM, HBSS pH 7.4, 3 h): 9.02 ×10⁻⁶ cm/s; Papp ([9]; PAMPA Papp, Figure 5): 10 ×10⁻⁶ cm/s; Papp ([9]; Papp): ~10 ×10⁻⁶ cm/s
6 | CCOC(=O)[C@@H]1CSCC(=O)N[C@H](CC)C(=O)N(C)[C@@H](C)C(=O)N[C@@H](CC(C)C)C(=O)N(C)[C@H](C)C(=O)N(CC(C)C)CC(=O)N[C@@H](CC(C)C)C(=O)N(C)[C@H](C)C(=O)N[C@@H](CC(C)C)C(=O)N1C [A1-6L, O=C(N(C)[C@H](C(OCC)=O)CSCC(N[C@@H](C(N(C)[C@@H](C)C(N[C@@H](CC(C)C)C(N(C)[C@H](C)C(N(CC(C)C)CC(N[C@H]1CC(C)C)=O)=O)=O)=O)=O)CC)=O)[C@H](CC(C)C)NC([C@@H](C)N(C)C1=O)=O] ({CH2CO}-[dAbu][NMeA]L[dNMeA][Nleu]L[dNMeA]L[NMeC]-OEt; thioether N-9) |  |  |  | 0.9 |  | Papp A→B (in vitro [4]): 0.86 ×10⁻⁶ cm/s
7 | CCOC(=O)[C@@H]1CSCC(=O)N[C@@H](CC(C)C)C(=O)N(C)[C@@H](C)C(=O)N[C@@H](CC(C)C)C(=O)N2CCC[C@@H]2C(=O)N(CC)CC(=O)N[C@@H](CC)C(=O)N(C)[C@@H](C)C(=O)N[C@@H](CC(C)C)C(=O)N1C [LA02, O=C(N(C)[C@H](C(OCC)=O)CSCC(N[C@H](C(N(C)[C@@H](C)C(N[C@@H](CC(C)C)C(N1[C@H](CCC1)C(N(CC)CC(N[C@H]2CC)=O)=O)=O)=O)=O)CC(C)C)=O)[C@H](CC(C)C)NC([C@H](C)N(C)C2=O)=O] ({CH2CO}-L[NMeA]L[dP][NEtG][Abu][NMeA]L[NMeC]-OEt; thioether N-9) | 4.1 | 17.1 | 4.5 |  | 4.1 | solubility kinetic at 24 h (physchem; [14]): 200 µM (≈ 196 µg/mL); Papp at 3 h, 10 µM (in vitro [4]; MDCK): 4.5 ×10⁻⁶ cm/s
8 | CCC[C@H]1C(=O)N[C@@H](CC)C(=O)N(C)[C@@H](C)C(=O)N[C@@H](CC(C)C)C(=O)N(C)[C@H](C(=O)OCC)CSCC(=O)N[C@@H](CC(C)C)C(=O)N(C)[C@@H](C)C(=O)N[C@@H](CC(C)C)C(=O)N2CCC[C@@H]2C(=O)N1C [LC04, O=C(N(C)[C@H](C(OCC)=O)CSCC(N[C@H](C(N(C)[C@@H](C)C(N[C@@H](CC(C)C)C(N1[C@H](CCC1)C(N(C)[C@@H](CCC)C(N[C@H]2CC)=O)=O)=O)=O)=O)CC(C)C)=O)[C@H](CC(C)C)NC([C@H](C)N(C)C2=O)=O] ({CH2CO}-L[NMeA]L[dP][NMeNva][Abu][NMeA]L[NMeC]-OEt; thioether N-9) | 3.3 | 11.2 | 6.5 |  | 3.3 | solubility kinetic at 24 h (physchem; [13]): 183 µM (≈ 185 µg/mL)
9 | CC(C)C[C@@H]1NC(=O)[C@H](Cc2ccccc2)N(C)C(=O)[C@H]2CCCN2C(=O)[C@H](CC(C)C)NC(=O)[C@H](C)N(C)C(=O)[C@H](CC(C)C)NC(=O)[C@H](Cc2ccccc2)N(C)C(=O)[C@H]2CCCN2C(=O)[C@H](CC(C)C)NC(=O)[C@H](C)N(C)C1=O [compound 1] (cyclo(L[NMeA]L[dP][NMeF]L[NMeA]L[dP][NMeF])) |  |  |  | 11.4 |  | Papp [5]: 5 ×10⁻⁶ cm/s; oral bioavailability [10]: 46 %F; PAMPA Papp [11]: 5.01 × 10^–6 cm/s
